Columns and labels:
SF-268 tumor cell line = assay: SRB cytotoxicity assay, SF-268; type: cell-based, human; details: SRB method, mean ± s, n=3
Method: (§1) The in vitro cytotoxicities of compounds 1–11 were evaluated against the SF-268, MCF-7, NCI-H460, and HepG-2 tumor cell lines by the Sulforhodamine B (SRB) method.
(§2) Cytotoxicities of compounds (1–11) were assayed against four tumor cell lines SF-268, MCF-7, NCI-H460, and HepG-2. Assays were performed by the SRB method.

MCF-7 tumor cell line = assay: SRB cytotoxicity assay, MCF-7; type: cell-based, human; details: SRB method, mean ± s, n=3
Method: as §1, §2

NCI-H460 tumor cell line = assay: SRB cytotoxicity assay, NCI-H460; type: cell-based, human; details: SRB method, mean ± s, n=3
Method: as §1, §2

HepG-2 tumor cell line = assay: SRB cytotoxicity assay, HepG-2; type: cell-based, human; details: SRB method, mean ± s, n=3
Method: as §1, §2

α-glucosidase = α-glucosidase inhibitory activity assay; type: biochemical; details: in vitro; mean ± s, n=3
Method: All compounds were evaluated in vitro for α-glucosidase inhibitory activities.
An assay of α-glucosidase inhibitory activity was performed as previously described.

[1] = tested on: SF-268, MCF-7, NCI-H460, and HepG-2 tumor cell lines; assay: SRB cytotoxicity, four tumor cell lines taken together; type: cell-based, human; details: for IC50: Homo sapiens, range over SF-268, MCF-7, NCI-H460, HepG-2, read-out: IC50 values against the four tumor cell lines; for cytotoxic / inhibitory activity against the four tumor cell lines (in words): SF-268, MCF-7, NCI-H460, HepG-2, SRB method
Method: as §1, §2

Compound | IC50 (SF-268 tumor cell line; Homo sapiens, SF-268) | IC50 (MCF-7 tumor cell line; Homo sapiens, MCF7) | IC50 (NCI-H460 tumor cell line; Homo sapiens, NCI-H460) | IC50 (HepG-2 tumor cell line; Homo sapiens, HepG2) | IC50 (α-glucosidase) | IC50 [1] | IC50 (SF-268 tumor cell line) | IC50 (MCF-7 tumor cell line) | IC50 (NCI-H460 tumor cell line) | IC50 (HepG-2 tumor cell line) | cytotoxic / inhibitory activity against the four tumor cell lines (in words) [1]
CN1C(=O)[C@]23Cc4ccccc4N2C(=O)[C@@]1(CO)SS3 [Compound 4, 6-deoxy-5a,6-didehydrogliotoxin] | 1.35 ± 0.05 µM | 0.68 ± 0.02 µM | 1.27 ± 0.04 µM | 1.52 ± 0.03 µM | > 500 µM | 0.08 to 1.52 µM |  |  |  |  | 
N.N.[Cl][Pt][Cl] [cisplatin, reference compound] |  |  |  |  |  |  | 2.37 ± 0.35 µM | 3.09 ± 0.27 µM | 2.43 ± 0.15 µM | 1.39 ± 0.18 µM | 
CS[C@@]1(CO)NC(=O)[C@@](Cc2ccccc2)(SC)NC1=O [Compound 7, bis-N-norgliovictin] | > 100 µM | > 100 µM | > 100 µM | > 100 µM | > 500 µM |  |  |  |  |  | 
CSC1(CO)C(=O)n2c(cc3ccccc32)C(=O)N1C (stereo not shown) [Compound 1, dichotocejpin A] | 35.7 ± 2.1 µM | 29.5 ± 2.3 µM | > 100 µM | 28.9 ± 3 µM | 138 ± 6.7 µM |  |  |  |  |  | inactive or weak
bisdethiobis(methylthio)gliotoxin [Compound 9] |  |  |  |  | > 500 µM |  | > 100 µM | > 100 µM | > 100 µM | > 100 µM | 
C=c1c(=O)n2c(cc3ccccc32)c(=O)n1C [Compound 11, 1,2,3,4-tetrahydro-2-methyl-3-methylene-1,4-dioxopyrazino[1,2-a]indole] | 3.3 ± 0.28 µM | 4.67 ± 1.4 µM | 12.3 ± 0.24 µM | 2.29 ± 0.3 µM | > 500 µM |  |  |  |  |  | significant inhibitory activities
CC(=O)O[C@H]1C=CC=C2C[C@]34SS[C@](CO)(C(=O)N3C21)N(C)C4=O (stereo partly shown) [Compound 6, acetylgliotoxin] | 0.25 ± 0.03 µM | 0.22 ± 0.04 µM | 0.32 ± 0.02 µM | 0.49 ± 0.07 µM | > 500 µM | 0.08 to 1.52 µM |  |  |  |  | 
CN1C(=O)[C@]23CC4=CC=C[C@H](O)[C@H]4N2C(=O)[C@@]1(CO)SS3 [Compound 5, gliotoxin] | 0.24 ± 0.1 µM | 0.08 µM | 0.24 ± 0.01 µM | 0.21 ± 0.01 µM | > 500 µM | 0.08 to 1.52 µM |  |  |  |  | 
CSC1(Cc2ccccc2)NC(=O)C(CO)NC1=O (stereo not shown) [Compound 8, 3-benzyl-6-(hydroxymethyl)-3-(methylthio)piperazine-2,5-dione] | > 100 µM | > 100 µM | > 100 µM | > 100 µM | > 500 µM |  |  |  |  |  | 
C=C1C(=O)N2C3C(=CC=CC3OC(C)=O)CC2(O)C(=O)N1C (stereo not shown) [Compound 2, dichotocejpin B] | > 100 µM | > 100 µM | > 100 µM | > 100 µM | > 500 µM |  |  |  |  |  | inactive or weak
CN1C(=O)[C@]2(O)Cc3ccccc3N2C(=O)[C@H]1CO [Compound 3, dichotocejpin C] | > 100 µM | > 100 µM | > 100 µM | > 100 µM | > 500 µM |  |  |  |  |  | inactive or weak
CS[C@]1(CO)C(=O)N2[C@H]3C(=CC=C[C@@H]3OC(C)=O)C[C@@]2(SC)C(=O)N1C [Compound 10, 6-acetylbis(methylthio)gliotoxin] | 34 ± 3.6 µM | 3.1 ± 0.1 µM | 5.4 ± 0.6 µM | 7 ± 0.17 µM | > 500 µM |  |  |  |  |  | significant inhibitory activities

Source: article PMC5039535, “Dichotocejpins A–C: New Diketopiperazines from a Deep-Sea-Derived Fungus Dichotomomyces cejpii FS110” (Marine Drugs, 2016)
